According to patent US12501899B2, “Mite infestation treatment” (priority 2019, dated 2025):
Structures can show the parent of a compound that is named as a salt. Where two headings read alike, the source gives them in different places.

Assays:
bees (Apis mellifera) = conditions: for mortality / toxicity for the bees: after 24 hours; for bees killed / bee mortality / bees killed: 1 μL on bee thorax; for bees killed / bee mortality: time not stated (monitored up to 24 hours)
Procedure: (§1) The bees were then dispatched in the boxes (10 per box).
(§2) The bees were then put to sleep for a few minutes using CO2 (flow of 3 liters for 20 seconds) in order to deposit 1 μL of compound to be tested on their thorax using a pipette. It should be noted that the bees which received romifidine hydrochloride at a concentration of 10 μg/μL received 2 μL of product. The bees were unconscious for the time the compound to be tested was deposited, that is to say around three minutes, then they woke up.
(§3) After thoracic deposition of the compound to be tested, the 10 bees from the same box were transferred to a box containing the 10 Varroa mites (cf. “Preparation of Varroa mites” above). Liquid sugar was left in each of the boxes to feed the bees during the observations. The series of boxes was then placed in an oven at […] with a humidity of 50% in order to approximate hive conditions as closely as possible.
(§4) The mortality of Varroa mites and bees was then monitored 5 minutes, 2 hours, 4 hours and 24 hours after application of the compound to be tested to the bees. Dead Varroa mites correspond to Varroa mites detached from the bees. Dead bees correspond to bees which no longer move and which are often placed on their thorax.
(§5) The following compositions were applied to the thorax of the bees: • Solvent, • Amitraz at 1 μg/μL in acetone, • Clonidine hydrochloride at 100 μg/μL, 10 μg/μL, 1 μg/μL and 0.1 μg/μL in methanol, • Detomidine hydrochloride monohydrate at 1 μg/μL in methanol, • Dexmedetomidine hydrochloride at 100 μg/μL, 10 μg/μL, 1 μg/μL and 0.1 μg/μL in methanol, • Romifidine hydrochloride at 10 μg/μL and at 5 μg/μL in methanol, • Tizanidine hydrochloride at 1 μg/μL in methanol, • Medetomidine hydrochloride at 0.1 μg/μL in ethanol, • Levomedetomidine hydrochloride at 100 μg/μL, 10 μg/μL, 1 μg/μL and 0.1 μg/μL in methanol, • Octopamine at 1 μg/μL in ethanol. Results

Varroa destructor = test system: Varroa destructor
Procedure: About 300 bees (Apis mellifera) infected with Varroa destructor were taken from a hive superinfected with Varroa destructor. The bees were then placed in a device allowing to detach Varroa mites attached to the bees (device described in Community model n° 003419415-0001) filled with icing sugar. The device was stirred for 2 minutes to sample the Varroa mites attached to the bees. The icing sugar allows to interfere between the bee and the Varroa mite that was attached thereto. Varroa mites were harvested with icing sugar because they pass through the holes in the device, unlike bees. The Varroa mites were then separated from the icing sugar.
The Varroa mites thus recovered were dispatched in boxes (10 Varroa mites per box).
as §1, §2, §3, §4, §5

**Q.** How did the “mortality for the bees” value (bees (Apis mellifera); 1 μg/μL, after 2 hours) turn out when Cc1cccc(Cc2cnc[nH]2)c1C [Detomidine hydrochloride monohydrate, 4-[(2,3-dimethylphenyl)-methyl]-3H-imidazole] was run?
**A.** without mortality

**Q.** And the “mortality / toxicity for the bees” value (bees (Apis mellifera); 1 μg/μL)?
**A.** without mortality

**Q.** What about the Varroa mites killed (Varroa destructor; 1 μg/μL, after 2 hours) of the same molecule?
**A.** 40%

**Q.** And the “Varroa mites killed / Varroa mite mortality” value (Varroa destructor; 1 μg/μL, after 24 hours)?
**A.** 100%

**Q.** Which “bees killed / bee mortality” value (bees (Apis mellifera); 1 μg/μL) does the source give for Clc1cccc(Cl)c1NC1=NCCN1 [Clonidine hydrochloride, N-(2,6-dichlorophenyl)-4,5-dihydro-1H-imidazol-2-amine] here?
**A.** zero mortality

**Q.** What about the bees killed (bees (Apis mellifera); 10 μg/μL) of the same molecule?
**A.** 10%

**Q.** And the bees killed (bees (Apis mellifera); 100 μg/μL)?
**A.** 10%

**Q.** And the “kinetics of the Varroacid effect (in words)” value (Varroa destructor; full efficiency after 24 hours)?
**A.** rather slow compared to the positive control

**Q.** For NCC(O)c1ccc(O)cc1 (stereo not drawn) [Octopamine], which “bees killed / bee mortality” value (bees (Apis mellifera); 1 μg/μL) is on record?
**A.** zero

**Q.** What about the “Varroacid effect (in words)” value (Varroa destructor; 1 μg/μL in ethanol) of the same molecule?
**A.** No Varroacid effect

**Q.** For Fc1cccc(Br)c1NC1=NCCN1 [Romifidine hydrochloride, N-(2-bromo-6-fluorophenyl)-4,5-dihydro-1H-imidazol-2-amine], which Bee mortality (bees (Apis mellifera); all doses (10 and 5 μg/μL), even after 24 hours) is on record?
**A.** zero

**Q.** What about the “mortality of Varroa mites” value (Varroa destructor; 5 μg/μL, 24 hours, compared with 10 μg/μL at 4 hours) of the same molecule?
**A.** same level of mortality

**Q.** What about the “mortality of Varroa mites” value (Varroa destructor; 2 μl of product at 10 μg/μL, after 2 hours) of the same molecule?
**A.** 75%

**Q.** What about the “mortality of Varroa mites” value (Varroa destructor; 2 μl of product at 10 μg/μL, after 4 hours) of the same molecule?
**A.** 95%

**Q.** Clc1ccc2nsnc2c1NC1=NCCN1 [Tizanidine hydrochloride, 4-Chloro-N-(4,5-dihydro-1H-imidazol-2-yl)-8-thia-7,9-diazabicyclo, nona-2,4,6,9-tetraen-5-amine] was tested. Which “mortality / toxicity for the bees” value (bees (Apis mellifera); 1 μg/μL) did it give?
**A.** without toxicity
